Publication PMC9889419 (Pharmacological Reports, 2022)
pIC50: −log10 of the molar value. Where a name gives a salt, the structure may show the parent alone. Marks after values point to notes of the source that are not given here.

Columns and labels:
H2 = target: T1, H2 (Homo sapiens, UniProt P25021); test: Radioligand binding; settings: 100 μM
T1 construct: purchased Eurofins CEREP

β2 = target: T2, β2 (Homo sapiens, UniProt P07550); test: Radioligand binding; settings: 100 μM
T2 construct: purchased Eurofins CEREP

NK3 = target: T3, NK3 (Homo sapiens, UniProt P29371); test: Radioligand binding; settings: 100 μM
T3 construct: purchased Eurofins CEREP

V1a = target: T4, V1a (Homo sapiens, UniProt P37288); test: Radioligand binding; settings: 100 μM
T4 construct: purchased Eurofins CEREP

AT2 = target: T5, AT2 (Homo sapiens, UniProt P50052); test: Radioligand binding; settings: 100 μM
T5 construct: purchased Eurofins CEREP

D5 = target: T6, D5 (Homo sapiens, UniProt P21918); test: Radioligand binding; settings: 100 μM
T6 construct: purchased Eurofins CEREP

AT1 = target: T7, AT1 (Homo sapiens, UniProt P30556); test: Radioligand binding; settings: 100 μM
T7 construct: purchased Eurofins CEREP

5-HT3 = target: T8, 5-HT3 (Homo sapiens, UniProt P46098); test: Radioligand binding; settings: 100 μM
T8 construct: purchased Eurofins CEREP

CGRP = target: T9, CGRP (Homo sapiens, UniProt O60894+Q16602); test: Radioligand binding; settings: 100 μM
T9 construct: purchased Eurofins CEREP

δ (DOP) = target: T10, δ (DOP) (Homo sapiens, UniProt P41143); test: Radioligand binding; settings: 100 μM
T10 construct: purchased Eurofins CEREP

CB1 = target: T11, CB1 (Homo sapiens, UniProt P21554); test: Radioligand binding; settings: 100 μM
T11 construct: purchased Eurofins CEREP

5-HT1B = target: T12, 5-HT1B (Rattus norvegicus, UniProt P28564); test: Radioligand binding; settings: 100 μM
T12 construct: purchased Eurofins CEREP

A3 = target: T13, A3 (Homo sapiens, UniProt P0DMS8); test: Radioligand binding; settings: 100 μM
T13 construct: purchased Eurofins CEREP

TNF-α = test: Radioligand binding; settings: 100 μM
Y1 = target: T14, Y1 (Homo sapiens, UniProt P25929); test: Radioligand binding; settings: 100 μM
T14 construct: purchased Eurofins CEREP

CCK2 (CCKB) = target: T15, CCK2 (CCKB) (Homo sapiens, UniProt P32239); test: Radioligand binding; settings: 100 μM
T15 construct: purchased Eurofins CEREP

D1 = target: T16, D1 (Homo sapiens, UniProt P21728); test: Radioligand binding; settings: 100 μM
T16 construct: purchased Eurofins CEREP

NK2 = target: T17, NK2 (Homo sapiens, UniProt P21452); test: Radioligand binding; settings: 100 μM
T17 construct: purchased Eurofins CEREP

[1] = target: T18, norepinephrine transporter (Homo sapiens, UniProt P23975); test: Radioligand binding; settings: 100 μM
T18 construct: purchased Eurofins CEREP

5-HT5a = target: T19, 5-HT5a (Homo sapiens, UniProt P47898); test: Radioligand binding; settings: 100 μM
T19 construct: purchased Eurofins CEREP

GR = target: T20, GR (Homo sapiens, UniProt P04150); test: Radioligand binding; settings: 100 μM
T20 construct: purchased Eurofins CEREP

NK1 = target: T21, NK1 (Homo sapiens, UniProt P25103); test: Radioligand binding; settings: 100 μM
T21 construct: purchased Eurofins CEREP

CXCR2 (IL-8B) = target: T22, CXCR2 (IL-8B) (Homo sapiens, UniProt P25025); test: Radioligand binding; settings: 100 μM
T22 construct: purchased Eurofins CEREP

A2A = target: T23, A2A (Homo sapiens, UniProt P29274); test: Radioligand binding; settings: 100 μM
T23 construct: purchased Eurofins CEREP

NOP (ORL1) = target: T24, NOP (ORL1) (Homo sapiens, UniProt P41146); test: Radioligand binding; settings: 100 μM
T24 construct: purchased Eurofins CEREP

β1 = target: T25, β1 (Homo sapiens, UniProt P08588); test: Radioligand binding; settings: 100 μM
T25 construct: purchased Eurofins CEREP

VPAC1 (VIP1) = target: T26, VPAC1 (VIP1) (Homo sapiens, UniProt P32241); test: Radioligand binding; settings: 100 μM
T26 construct: purchased Eurofins CEREP

NTS1 (NT1) = target: T27, NTS1 (NT1) (Homo sapiens, UniProt P30989); test: Radioligand binding; settings: 100 μM
T27 construct: purchased Eurofins CEREP

M2 = target: T28, M2 (Homo sapiens, UniProt P08172); test: Radioligand binding; settings: 100 μM
T28 construct: purchased Eurofins CEREP

mice = test: Hot plate test; assay type: in vivo
Protocol: The hot plate test was performed as previously described. The mice were ip pre-treated 30 min before experiment either with the compound, dissolved in saline (at doses 10, 30 and 100 mg/kg) or vehicle and were placed on a hot plate set at 55 °C (Hot plate, Omega 2A, Poland). Latency to nocifensive reaction (hind paw licking or jumping) of mice was recorded. The mouse was removed from the plate immediately upon licking a hind paw/jumping or if no response occurred within 60 s (cut-off).

guinea pigs = test: Infiltration anesthesia (intradermal wheal test); assay type: in vivo
Protocol: A painful reaction to a prick of the skin at the centre of the wheal three times and every 5 s with 5 min intervals during the first 30 min of observation was tested. The experiment was continued to achieve a return of a reaction to the prick. The control wheal was done by an intradermal injection of 0.1 mL of 0.9% NaCl [25]. Local anesthesia was determined by calculating the ratio of the number of positive responses (no flinch) to the number of negative responses (flinch).

hNav1.6 sodium channel = target: T29, hNav1.6 sodium channel (Homo sapiens, UniProt Q9UQD0); test: Nav channel electrophysiology (IonWorks Quattro); assay type: cell-based
T29 construct: host or cells: CHO cells
T29 sequence (Q9UQD0 whole entry): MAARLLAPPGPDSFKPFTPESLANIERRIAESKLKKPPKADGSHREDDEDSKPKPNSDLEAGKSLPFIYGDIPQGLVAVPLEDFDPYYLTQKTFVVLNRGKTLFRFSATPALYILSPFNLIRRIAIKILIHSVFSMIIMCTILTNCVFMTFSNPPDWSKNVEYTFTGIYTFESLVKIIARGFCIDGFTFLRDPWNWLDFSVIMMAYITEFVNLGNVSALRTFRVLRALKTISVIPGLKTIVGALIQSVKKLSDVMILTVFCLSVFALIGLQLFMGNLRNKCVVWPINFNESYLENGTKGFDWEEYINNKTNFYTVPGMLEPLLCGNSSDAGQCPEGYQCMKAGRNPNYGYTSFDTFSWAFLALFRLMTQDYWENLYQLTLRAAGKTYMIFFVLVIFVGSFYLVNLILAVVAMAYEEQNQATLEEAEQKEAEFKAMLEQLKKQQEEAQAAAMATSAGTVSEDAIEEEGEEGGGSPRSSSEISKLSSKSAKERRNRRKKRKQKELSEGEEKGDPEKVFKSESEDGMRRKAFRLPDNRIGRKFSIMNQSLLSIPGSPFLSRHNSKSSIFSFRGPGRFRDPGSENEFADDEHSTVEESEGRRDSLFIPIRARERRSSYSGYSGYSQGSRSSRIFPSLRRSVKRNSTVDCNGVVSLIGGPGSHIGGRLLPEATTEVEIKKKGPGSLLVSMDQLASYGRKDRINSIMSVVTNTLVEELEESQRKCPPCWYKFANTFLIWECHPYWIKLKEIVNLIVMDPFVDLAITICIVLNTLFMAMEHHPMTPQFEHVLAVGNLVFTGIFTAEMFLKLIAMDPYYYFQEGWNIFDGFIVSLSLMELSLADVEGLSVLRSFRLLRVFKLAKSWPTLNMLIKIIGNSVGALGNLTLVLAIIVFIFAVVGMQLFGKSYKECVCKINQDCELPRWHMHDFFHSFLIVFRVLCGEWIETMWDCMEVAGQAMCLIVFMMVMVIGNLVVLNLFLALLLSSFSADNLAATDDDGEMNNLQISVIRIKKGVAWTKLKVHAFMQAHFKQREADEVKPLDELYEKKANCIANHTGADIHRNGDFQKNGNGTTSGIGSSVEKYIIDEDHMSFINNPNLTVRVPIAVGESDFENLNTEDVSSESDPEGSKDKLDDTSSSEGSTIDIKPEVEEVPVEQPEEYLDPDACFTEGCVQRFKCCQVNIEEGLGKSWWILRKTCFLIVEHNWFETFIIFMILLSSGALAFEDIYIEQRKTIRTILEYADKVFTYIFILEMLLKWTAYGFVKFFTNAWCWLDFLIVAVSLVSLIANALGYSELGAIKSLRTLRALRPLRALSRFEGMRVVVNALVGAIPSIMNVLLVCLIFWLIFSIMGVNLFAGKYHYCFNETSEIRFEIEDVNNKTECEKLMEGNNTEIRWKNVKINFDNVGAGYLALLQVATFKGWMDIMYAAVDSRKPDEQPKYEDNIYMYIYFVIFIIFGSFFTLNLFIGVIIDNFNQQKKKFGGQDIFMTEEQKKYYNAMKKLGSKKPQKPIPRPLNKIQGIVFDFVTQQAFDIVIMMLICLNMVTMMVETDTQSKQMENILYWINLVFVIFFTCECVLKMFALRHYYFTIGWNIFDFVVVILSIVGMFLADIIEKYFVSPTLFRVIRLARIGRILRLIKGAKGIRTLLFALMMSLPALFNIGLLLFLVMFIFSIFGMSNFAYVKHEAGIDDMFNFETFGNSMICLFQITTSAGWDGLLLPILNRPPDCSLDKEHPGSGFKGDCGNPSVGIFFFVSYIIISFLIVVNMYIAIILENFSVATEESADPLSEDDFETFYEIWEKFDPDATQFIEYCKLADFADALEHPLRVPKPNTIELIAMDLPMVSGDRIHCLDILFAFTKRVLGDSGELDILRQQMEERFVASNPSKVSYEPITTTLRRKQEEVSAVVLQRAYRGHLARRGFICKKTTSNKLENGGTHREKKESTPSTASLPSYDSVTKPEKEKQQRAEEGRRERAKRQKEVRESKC

T23 sequence (P29274 whole entry): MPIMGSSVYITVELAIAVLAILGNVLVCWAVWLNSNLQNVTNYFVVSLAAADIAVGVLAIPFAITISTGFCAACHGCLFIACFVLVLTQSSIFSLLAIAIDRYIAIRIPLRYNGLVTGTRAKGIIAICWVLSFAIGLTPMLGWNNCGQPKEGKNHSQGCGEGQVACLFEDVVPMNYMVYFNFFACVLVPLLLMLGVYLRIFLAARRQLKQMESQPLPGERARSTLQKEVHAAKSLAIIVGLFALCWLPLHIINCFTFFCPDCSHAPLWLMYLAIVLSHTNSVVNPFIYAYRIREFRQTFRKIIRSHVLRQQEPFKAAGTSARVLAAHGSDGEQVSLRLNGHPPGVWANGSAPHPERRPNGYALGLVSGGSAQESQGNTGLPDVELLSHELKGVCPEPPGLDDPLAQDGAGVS
T25 sequence (P08588 whole entry): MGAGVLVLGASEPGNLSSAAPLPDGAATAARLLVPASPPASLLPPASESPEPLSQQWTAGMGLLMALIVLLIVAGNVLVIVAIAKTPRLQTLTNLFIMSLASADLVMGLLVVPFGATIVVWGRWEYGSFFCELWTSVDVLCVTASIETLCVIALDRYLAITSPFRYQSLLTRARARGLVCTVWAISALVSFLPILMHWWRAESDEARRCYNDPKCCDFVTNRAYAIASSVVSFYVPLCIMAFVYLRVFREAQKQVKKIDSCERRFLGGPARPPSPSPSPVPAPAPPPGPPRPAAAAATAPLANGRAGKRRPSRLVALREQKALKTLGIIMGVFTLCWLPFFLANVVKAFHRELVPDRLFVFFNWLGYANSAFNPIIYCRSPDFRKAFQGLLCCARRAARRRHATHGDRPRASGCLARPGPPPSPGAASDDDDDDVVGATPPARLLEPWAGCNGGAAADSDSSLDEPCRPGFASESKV
T27 sequence (P30989 whole entry): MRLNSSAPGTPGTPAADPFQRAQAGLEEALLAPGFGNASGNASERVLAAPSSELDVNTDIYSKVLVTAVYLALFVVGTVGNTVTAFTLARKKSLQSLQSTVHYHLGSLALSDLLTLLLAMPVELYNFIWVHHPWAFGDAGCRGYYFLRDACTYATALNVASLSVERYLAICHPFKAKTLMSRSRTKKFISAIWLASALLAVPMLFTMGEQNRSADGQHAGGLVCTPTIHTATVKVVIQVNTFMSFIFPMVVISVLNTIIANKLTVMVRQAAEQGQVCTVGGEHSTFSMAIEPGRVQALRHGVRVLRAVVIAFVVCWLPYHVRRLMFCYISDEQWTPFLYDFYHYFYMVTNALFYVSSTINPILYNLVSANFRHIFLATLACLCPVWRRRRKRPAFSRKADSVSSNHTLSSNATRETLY
T21 sequence (P25103 whole entry): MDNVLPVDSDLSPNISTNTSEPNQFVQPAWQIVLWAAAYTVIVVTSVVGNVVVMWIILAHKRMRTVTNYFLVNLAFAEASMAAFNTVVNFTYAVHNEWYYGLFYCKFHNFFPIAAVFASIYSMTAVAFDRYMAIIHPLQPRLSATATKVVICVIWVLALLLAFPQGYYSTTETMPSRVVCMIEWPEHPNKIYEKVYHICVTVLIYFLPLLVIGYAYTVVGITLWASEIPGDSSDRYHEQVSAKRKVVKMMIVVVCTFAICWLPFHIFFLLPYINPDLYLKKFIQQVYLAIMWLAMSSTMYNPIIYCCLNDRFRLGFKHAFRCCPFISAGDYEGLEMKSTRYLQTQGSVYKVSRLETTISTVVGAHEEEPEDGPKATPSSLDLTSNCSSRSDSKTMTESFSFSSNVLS
T15 sequence (P32239 whole entry): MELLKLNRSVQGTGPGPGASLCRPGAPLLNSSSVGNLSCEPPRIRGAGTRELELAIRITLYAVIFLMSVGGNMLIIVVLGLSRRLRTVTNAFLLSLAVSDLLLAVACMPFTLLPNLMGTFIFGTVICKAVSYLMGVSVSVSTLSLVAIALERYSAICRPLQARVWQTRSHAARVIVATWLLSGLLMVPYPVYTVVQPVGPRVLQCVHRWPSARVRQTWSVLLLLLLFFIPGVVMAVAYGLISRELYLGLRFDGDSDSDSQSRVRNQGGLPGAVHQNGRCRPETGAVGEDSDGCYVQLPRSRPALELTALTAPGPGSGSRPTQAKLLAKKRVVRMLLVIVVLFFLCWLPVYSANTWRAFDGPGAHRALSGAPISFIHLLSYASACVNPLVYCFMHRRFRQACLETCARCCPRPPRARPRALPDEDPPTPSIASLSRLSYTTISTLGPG
T14 sequence (P25929 whole entry): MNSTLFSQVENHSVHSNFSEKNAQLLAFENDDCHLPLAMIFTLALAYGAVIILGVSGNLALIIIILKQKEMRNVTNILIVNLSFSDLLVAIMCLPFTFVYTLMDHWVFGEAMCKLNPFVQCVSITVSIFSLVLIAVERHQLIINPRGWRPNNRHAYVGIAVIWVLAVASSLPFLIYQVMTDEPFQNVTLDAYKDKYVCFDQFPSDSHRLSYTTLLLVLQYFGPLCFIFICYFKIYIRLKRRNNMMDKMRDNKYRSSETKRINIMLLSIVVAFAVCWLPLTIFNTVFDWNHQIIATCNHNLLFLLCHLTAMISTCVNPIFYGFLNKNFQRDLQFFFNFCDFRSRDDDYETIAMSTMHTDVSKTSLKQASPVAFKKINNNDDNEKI
T22 sequence (P25025 whole entry): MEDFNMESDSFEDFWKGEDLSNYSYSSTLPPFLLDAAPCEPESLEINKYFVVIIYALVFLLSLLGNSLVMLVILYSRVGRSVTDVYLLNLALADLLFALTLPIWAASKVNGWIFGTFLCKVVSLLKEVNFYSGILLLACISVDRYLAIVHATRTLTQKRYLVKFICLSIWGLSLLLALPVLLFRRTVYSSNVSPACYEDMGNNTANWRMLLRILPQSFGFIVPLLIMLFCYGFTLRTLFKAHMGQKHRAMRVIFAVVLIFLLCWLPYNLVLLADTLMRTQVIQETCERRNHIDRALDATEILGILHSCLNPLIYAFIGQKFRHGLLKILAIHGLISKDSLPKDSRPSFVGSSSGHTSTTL

CCC(CO)NCCOc1c(C)cccc1Cl (stereo not drawn) [Compound 4, R,S-2-((2-(2-chloro-6-methylphenoxy)ethyl)amino)butan-1-ol]
% of control specific binding (H2): 90.3% | % of control specific binding (β2): 85.1% | % of control specific binding (NK3): 91.8% | % of control specific binding (V1a): 99.8% | % of control specific binding (AT2): 108.2% | % of control specific binding (D5): 54.4% | % of control specific binding (AT1): 131.2% | % of control specific binding (5-HT3): 76.2% | % of control specific binding (CGRP): 119.0% | % of control specific binding (δ (DOP)): 97.0% | % of control specific binding (CB1): 126.0% | % of control specific binding (5-HT1B): 79.7% | % of control specific binding (A3): 115.1% | % of control specific binding (TNF-α): 96.5% | % of control specific binding (Y1): 122.3% | % of control specific binding (CCK2 (CCKB)): 107.4% | % of control specific binding (D1): 58.6% | % of control specific binding (NK2): 88.7% | % of control specific binding [1]: 55.0% | % of control specific binding (5-HT5a): 52.8% | % of control specific binding (GR): 111.7% | % of control specific binding (NK1): 82.1% | % of control specific binding (CXCR2 (IL-8B)): 112.2% | % of control specific binding (A2A): 71.7% | % of control specific binding (NOP (ORL1)): 95.5% | % of control specific binding (β1): 64.4% | % of control specific binding (VPAC1 (VIP1)): 117.9% | % of control specific binding (NTS1 (NT1)): 128.1% | % of control specific binding (M2): 58.4%

CCC(CO)NCCOc1c(C)cccc1Cl (stereo not drawn) [KM-408, R,S-2-((2-(2-chloro-6-methylphenoxy)ethyl)amino)butan-1-ol hydrochloride]
effect on the thermal pain threshold (mice; 10 mg/kg ip): no significant effect | prolongation of nocifensive response (mice; 30 mg/kg ip): 123% | prolongation of nocifensive response (mice; 100 mg/kg ip): 177% | hot plate test: active at (mice; mice, ip): 30 mg/kg | Inhibition of pain reaction (guinea pigs; 0.125%, 30 min): 33.3* % | Inhibition of pain reaction (guinea pigs; 0.125%, 60 min): 38.9* % | Inhibition of pain reaction (guinea pigs; 0.125%, 120 min): 33.3* % | Inhibition of pain reaction (guinea pigs; 0.5%, 30 min): 93.3*** % | Inhibition of pain reaction (guinea pigs; 0.5%, 60 min): 81.2*** % | Inhibition of pain reaction (guinea pigs; 0.5%, 120 min): 66.7*** % | Inhibition of pain reaction (guinea pigs; 0.5%, 240 min): 20.0% | Inhibition of pain reaction (guinea pigs; […], 30 min): 81.2*** % | Inhibition of pain reaction (guinea pigs; […], 60 min): 64.7** % | Inhibition of pain reaction (guinea pigs; […], 120 min): 70.6*** % | Inhibition of pain reaction (guinea pigs; […], 240 min): 33.3* % | infiltration anesthesia: active at (guinea pigs; guinea pigs): 0.125% | pIC50 (hNav1.6 sodium channel; 10 Hz): 4.69 | pIC50 (hNav1.6 sodium channel; Inactivated state): > 5.00 | pIC50 (hNav1.6 sodium channel; Tonic block): 4.22
